We go through one compound from BindingDB's records for doi:10.3109/14756366.2012.668539 (Federal University of São Paulo, 2013).

pKi: −log10 of the molar value.

The test addresses T1, Papain (Carica papaya, UniProt P00784).
T1 sequence (P00784 whole entry): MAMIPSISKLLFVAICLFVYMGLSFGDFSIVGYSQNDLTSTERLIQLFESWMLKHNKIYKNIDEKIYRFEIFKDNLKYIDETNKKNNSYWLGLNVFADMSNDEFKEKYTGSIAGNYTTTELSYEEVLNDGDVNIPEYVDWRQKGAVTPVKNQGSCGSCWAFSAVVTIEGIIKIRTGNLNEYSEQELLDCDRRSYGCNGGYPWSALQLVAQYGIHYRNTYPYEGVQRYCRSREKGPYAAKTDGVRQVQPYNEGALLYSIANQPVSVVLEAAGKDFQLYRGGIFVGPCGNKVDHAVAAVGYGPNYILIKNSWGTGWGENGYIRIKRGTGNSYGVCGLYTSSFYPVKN
Put plainly: Kinetic Assay. How it is done:
To characterize the type and extent inhibition of papain by fukugetin, papain (0.04 nM) was incubated with four concentrations of fukugetin (1.5, 3, 6 and 12μM). For cruzain, enzyme concentration was 12 nM and inhibitor concentrations varied from 1 μM to 10 μM. Analysis of enzyme kinetic data was carried out using the Lineweaver-Burk plot30 in Grafit 5.0 software. Hydrolytic activity was measured […], mixing fukugetin and enzymes by addition growingconcentrations of Cbz-Phe-Arg-MCA (0.5-22 μM).

Regarding `O=C1c2c(O)cc(O)cc2OC(c2ccc(O)cc2)C1c1c(O)cc(O)c2c(=O)cc(-c3ccc(O)c(O)c3)oc12` (stereo unspecified) [Fukugetin], the pKi was 4.87.
